Data as given in paper PMC11870023, “A facile assay for zDHHC palmitoyl transferase activation elucidates effects of mutation and modification” (Journal of Lipid Research, 2025).

How the values were obtained:
Test in all cases: auto-S-palmitoylation of HEK293 membranes, SDS-PAGE fluorescence normalised to tag Western blot
human zDHHC7 [1] = target: T1, human zDHHC7 (Homo sapiens, UniProt Q9NXF8); type: cell-based; details: pH 7.4, 37 °C, 2 min; labelled compound; covalent thioester at active-site Cys
T1 construct: full length, His6-Myc tag kept (pCEpuro-His6-Myc-1), HEK293 membrane fraction
T1 sequence (Q9NXF8 1-308): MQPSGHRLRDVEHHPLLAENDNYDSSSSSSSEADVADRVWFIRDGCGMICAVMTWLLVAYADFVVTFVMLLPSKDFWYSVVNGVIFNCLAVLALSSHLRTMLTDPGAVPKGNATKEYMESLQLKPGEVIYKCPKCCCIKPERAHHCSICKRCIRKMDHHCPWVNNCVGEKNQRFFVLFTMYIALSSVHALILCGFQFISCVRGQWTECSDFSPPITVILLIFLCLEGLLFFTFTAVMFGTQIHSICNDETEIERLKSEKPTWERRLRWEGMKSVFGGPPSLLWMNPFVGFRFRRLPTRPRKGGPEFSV

human zDHHC7 [2] = target: T1, human zDHHC7; type: cell-based; details: pH 7.4, 37 °C, 2 min; labelled compound; covalent thioester at active-site Cys; remark: listed apart in the source
From the text: auto-S-palmitoylation of HEK293 membranes, SDS-PAGE fluorescence normalised to tag Western blot on human zDHHC7 | N44D mutation within the N-terminal cytoplasmic tail of zDHHC7 (Fig. 4A) had no effect

human zDHHC14 = target: T2, human zDHHC14 (Homo sapiens, UniProt Q8IZN3, C181Y); type: biochemical; details: pH 7.4, 37 °C, 2 min; labelled compound; covalent thioester at active-site Cys
T2 construct: full length, His6-Myc tag kept (pCEpuro-His6-Myc-1), HEK293 membrane fraction
T2 sequence (Q8IZN3 1-488 C181Y): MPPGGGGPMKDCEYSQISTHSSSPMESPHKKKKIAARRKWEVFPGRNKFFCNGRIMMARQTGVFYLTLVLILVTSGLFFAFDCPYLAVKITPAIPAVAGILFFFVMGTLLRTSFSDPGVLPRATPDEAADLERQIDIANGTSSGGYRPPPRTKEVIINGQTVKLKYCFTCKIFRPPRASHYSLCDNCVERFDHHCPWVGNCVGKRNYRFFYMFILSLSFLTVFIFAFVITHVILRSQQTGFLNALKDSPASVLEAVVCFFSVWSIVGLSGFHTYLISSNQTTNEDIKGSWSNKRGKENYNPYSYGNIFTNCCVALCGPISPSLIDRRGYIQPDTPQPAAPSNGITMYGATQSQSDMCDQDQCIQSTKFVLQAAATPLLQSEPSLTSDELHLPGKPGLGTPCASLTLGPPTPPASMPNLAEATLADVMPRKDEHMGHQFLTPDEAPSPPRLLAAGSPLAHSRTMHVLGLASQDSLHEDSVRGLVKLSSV

mouse zDHHC11 = system: T3, mouse zDHHC11; type: cell-based; details: pH 7.4, 37 °C; labelled compound; covalent thioester at active-site Cys
T3 construct: full length, HA tag kept (pEF-Bos-HA), HEK293 membrane fraction; the source plasmid set's older numbering used DHHC-11 for Zdhhc23, so the gene is not certain

- Km (human zDHHC7 [1]): 3.4 ± 0.57 µM
- Km (human zDHHC7 [2]): 2850 ± 720 nM
SMILES: CC(C)(COP(=O)(O)OP(=O)(O)OC[C@H]1O[C@@H](n2cnc3c(N)ncnc32)[C@H](O)[C@@H]1OP(=O)(O)O)[C@@H](O)C(=O)NCCC(=O)NCCSC(=O)CCCCCCCCCCCCCCCNc1ccc([N+](=O)[O-])c2nonc12 [NBD-palmitoyl-CoA, N-[(7-nitro-2-1,3-benzoxadiazol-4-yl)-methyl]amino palmitoyl]
- auto-S-palmitoylation of HEK293 membranes, SDS-PAGE fluorescence normalised to t (human zDHHC14): C→Y mutation of Cys181 within the second zinc finger domain (Fig. 4A) eliminated auto-S-palmitoylation
- Km (mouse zDHHC11): 890 ± 230 nM
